Here are results for 1 compound from patent US20150352075A1, “Treatment of Alzheimer's and Cognitive Impairment With Andrographolides” (INNOBIOSCIENCE, LLC, priority 2013, published 2015).

The assay concerns Wnt target genes in cultured hippocampal neurons. Nature of the assay: PCR array of Wnt target genes in hippocampal neurons. In kind it is cell-based, rat. As to the method: Primary culture of rat hippocampal neurons. […] PCR-ARRAY. RNA from hippocampal neurons was extracted using Trizol. Quantification and purity of RNA preparations were checked by absorbance using Nanodrop ND-2000. Only preparations with a 260/280 nm ratio ≧1.8, a 260/230 nm ratio ≧1.7 and no sign of RNA degradations, verified by agarose gel electrophoresis with Gel Red™ were used. Genomic DNA was degraded. Using RT2First-Strand cDNA Synthesis kit (SuperArray), 1 ng total RNA was reverse transcribed and then real-time PCR was performed by adding cDNA directly to PCR Master Mix, containing SYBR Green and ROX. The mixtures were then aliquoted into a 96-well PCR array plates, which profiles the expression of 84 Wnt target genes from rat. The PCR was run on ABI StepOnePlus, with 1 cycle of 10 min at 95° C. followed by 40 cycles of 15s at 95° C. and 1 min at 60° C. […] Treatment of neuronal cultures. Primary hippocampal cultures of neurons 14 DIV were washed twice in neurobasal medium and maintained for 1 hour. Next ANDRO (10 μM) and 6-BIO (10 μM) were added to different time periods.

Turning to `C=C1CC[C@@H]2C(C)(CO)C(O)CC[C@@]2(C)C1C/C=C1/C(=O)OCC1O` (stereo in doubt) [ANDRO, 3-(2-(Decahydro-6-hydroxy-5-(hydroxymethyl)-5,8a-dimethyl-2-methylenenaphthyl)ethylidene)dihydro-4-hydroxyfuran-2(3H)-one], the Cdh-1 gene expression entry is on record as “differential expression induced by ANDRO”. Under “9 h, of the 86 genes analyzed”, the “number of Wnt target genes specifically modulated” value was determined as 3 genes and the “number of modulated Wnt target genes shared by both treatments” value is reported as 4. Besides, the Ets2 gene expression entry (after Bonferroni correction) was “down-regulation of Ets2 gene”.
